According to US12655107B2 (The United States of America, as represented by the …, priority 2018, dated 2026):
Like-named read-outs stand apart in the source and are kept apart here.

Columns and labels:
TK-10 = assay: NCI-60 cytotoxicity; type: cell-based, human; conditions: NCI-60 Renal Cancer, 48 h
Experimental: (§1) Cell growth inhibition (GI50 in Table 3) was calculated relative to cells without compound treatment and the time zero control.
(§2) Regarding Table 8, according to the NCI established procedures, the cells were incubated with 67 or 50 for 48 hours and stained with sulforhodamine B dye.

HCT116 = assay: NCI-60 cytotoxicity; type: cell-based, human; conditions: NCI-60 Colon Cancer, 48 h
Experimental: as §1, §2

OVCAR-3 = assay: NCI-60 cytotoxicity; type: cell-based, human; conditions: NCI-60 Ovarian Cancer, 48 h
Experimental: as §1, §2

OVCAR-4 = assay: NCI-60 cytotoxicity; type: cell-based, human; conditions: NCI-60 Ovarian Cancer, 48 h
Experimental: as §1, §2

COLO 205 = assay: NCI-60 cytotoxicity; type: cell-based, human; conditions: NCI-60 Colon Cancer, 48 h
Experimental: as §1, §2

UACC-62 = assay: NCI-60 cytotoxicity; type: cell-based, human; conditions: NCI-60 Melanoma, 48 h
Experimental: as §1, §2

HOP-92 = assay: NCI-60 cytotoxicity; type: cell-based, human; conditions: NCI-60 Non-Small Cell Lung Cancer, 48 h
Experimental: as §1, §2

T-47D = assay: NCI-60 cytotoxicity; type: cell-based, human; conditions: NCI-60 Breast Cancer, 48 h
Experimental: as §1, §2

MDA-MB-435 = assay: NCI-60 cytotoxicity; type: cell-based, human; conditions: NCI-60 Melanoma, 48 h
Experimental: as §1, §2

RXF 393 = assay: NCI-60 cytotoxicity; type: cell-based, human; conditions: NCI-60 Renal Cancer, 48 h
Experimental: as §1, §2

SN 12C = assay: NCI-60 cytotoxicity; type: cell-based, human; conditions: NCI-60 Renal Cancer, 48 h
Experimental: as §1, §2

SK-MEL-5 = assay: NCI-60 cytotoxicity; type: cell-based, human; conditions: NCI-60 Melanoma, 48 h
Experimental: as §1, §2

UO-31 = assay: NCI-60 cytotoxicity; type: cell-based, human; conditions: NCI-60 Renal Cancer, 48 h
Experimental: as §1, §2

NCI-H522 = assay: NCI-60 cytotoxicity; type: cell-based, human; conditions: NCI-60 Non-Small Cell Lung Cancer, 48 h
Experimental: as §1, §2

NCI/ADR-RES = assay: NCI-60 cytotoxicity; type: cell-based, human; conditions: NCI-60 Ovarian Cancer, 48 h
Experimental: as §1, §2

BT-549 = assay: NCI-60 cytotoxicity; type: cell-based, human; conditions: NCI-60 Breast Cancer, 48 h
Experimental: as §1, §2

A549/ATCC = assay: NCI-60 cytotoxicity; type: cell-based, human; conditions: NCI-60 Non-Small Cell Lung Cancer, 48 h
Experimental: as §1, §2

NCI-H23 = assay: NCI-60 cytotoxicity; type: cell-based, human; conditions: NCI-60 Non-Small Cell Lung Cancer, 48 h
Experimental: as §1, §2

CAKI-1 = assay: NCI-60 cytotoxicity; type: cell-based, human; conditions: NCI-60 Renal Cancer, 48 h
Experimental: as §1, §2

MCF7 = assay: NCI-60 cytotoxicity; type: cell-based, human; conditions: NCI-60 Breast Cancer, 48 h
Experimental: as §1, §2

DU-145 = assay: NCI-60 cytotoxicity; type: cell-based, human; conditions: read-out: GI50 (μM) DU-145; NCI-60 Prostate Cancer, 48 h
Experimental: as §1, §2

786-0 = assay: NCI-60 cytotoxicity; type: cell-based, human; conditions: NCI-60 Renal Cancer, 48 h
Experimental: as §1, §2

OVCAR-5 = assay: NCI-60 cytotoxicity; type: cell-based, human; conditions: NCI-60 Ovarian Cancer, 48 h
Experimental: as §1, §2

SNB-75 = assay: NCI-60 cytotoxicity; type: cell-based, human; conditions: NCI-60 CNS Cancer, 48 h
Experimental: as §1, §2

NCI-60 cell lines = assay: NCI-60 cytotoxicity, mean graph midpoint; conditions: read-out: GI50 (μM) MGM; mean graph midpoint of all cell lines, 48 h, sulforhodamine B
DU145 = assay: MTT cytotoxicity assay, DU145; type: cell-based, human
Experimental: (§3) Cytotoxicity Assays. […] The cells were incubated with the tested compounds for 72 hours in a five-dose assay ranging from 0.01 to 100 μM concentration. After drug treatments, MTT solution was added to test the percentage growth of tumor cells.
(§4) The compounds were incubated with the cells for 72 hours in a five-dose assay ranging from 0.01 to 100 μM concentration. At the end of the incubation, the MTT solution was added to test the percentage growth of tumor cells.
(§5) For the drug treatment experiments, the cancer cells were treated with the compounds (predissolved in DMSO) at a five-dose assay ranging from 0.01 to 100 μM concentration. […] After 4 h incubation, the formazan crystal formed in the well was dissolved with […] of DMSO for optical density reading at 570 nm. The GI50 value was calculated by nonlinear regression analysis (GraphPad Prism).

A549 = assay: MTT cytotoxicity assay, A549; type: cell-based, human; conditions: 72 h, Table 7, read-out: GI50 ± SC (μM) A-49
Experimental: as §3, §4, §5

Top1 = target: T1, Top1 (Homo sapiens, UniProt P11387); assay: Top1-mediated DNA cleavage assay; type: biochemical; conditions: graded relative to CPT at 1 μM, Table 7
T1 sequence (P11387 1-765): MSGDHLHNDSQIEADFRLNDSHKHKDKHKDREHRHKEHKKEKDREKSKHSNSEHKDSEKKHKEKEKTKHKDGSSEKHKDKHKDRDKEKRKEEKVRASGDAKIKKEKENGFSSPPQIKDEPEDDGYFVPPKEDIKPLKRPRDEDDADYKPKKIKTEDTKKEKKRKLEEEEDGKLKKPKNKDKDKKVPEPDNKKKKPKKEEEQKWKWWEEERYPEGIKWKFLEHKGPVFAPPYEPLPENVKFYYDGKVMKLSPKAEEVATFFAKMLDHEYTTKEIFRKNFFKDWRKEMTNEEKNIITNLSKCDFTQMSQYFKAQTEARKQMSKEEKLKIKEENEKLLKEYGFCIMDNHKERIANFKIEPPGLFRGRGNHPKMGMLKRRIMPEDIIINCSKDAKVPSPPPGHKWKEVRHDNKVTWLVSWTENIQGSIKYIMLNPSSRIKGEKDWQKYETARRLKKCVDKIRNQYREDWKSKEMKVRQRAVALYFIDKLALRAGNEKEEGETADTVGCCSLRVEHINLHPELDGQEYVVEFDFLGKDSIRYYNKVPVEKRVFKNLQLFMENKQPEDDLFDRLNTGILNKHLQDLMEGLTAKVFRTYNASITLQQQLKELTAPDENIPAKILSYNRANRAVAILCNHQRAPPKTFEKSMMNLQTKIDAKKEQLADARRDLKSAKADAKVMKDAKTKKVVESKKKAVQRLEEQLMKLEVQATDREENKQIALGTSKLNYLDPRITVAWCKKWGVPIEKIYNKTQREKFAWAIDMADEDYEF

[1] = 72 h, Table 7, read-out: GI50 ± SC (μM) DU145

Compound | GI50 (TK-10) [µM] | GI50 (HCT116) [µM] | GI50 (OVCAR-3) [µM] | GI50 (OVCAR-4) [µM] | GI50 (COLO 205) [µM] | GI50 (UACC-62) [µM] | GI50 (HOP-92) [µM] | GI50 (T-47D) [µM] | GI50 (MDA-MB-435) [µM] | GI50 (RXF 393) [µM] | GI50 (SN 12C) [µM] | GI50 (SK-MEL-5) [µM] | GI50 (UO-31) [µM] | GI50 (NCI-H522) [µM] | GI50 (NCI/ADR-RES) [µM] | GI50 (BT-549) [µM] | GI50 (A549/ATCC) [µM] | GI50 (NCI-H23) [µM] | GI50 (CAKI-1) [µM] | GI50 (MCF7) [µM] | other results
CNCCn1c(=O)c2cc(OC)c(OC)cc2c2ccc3cc4c(cc3c21)OCO4 [Compound 50, 2,3-dimethoxy-12-(2-(methylamino)ethyl)-[1,3]dioxolo[4′5′:4,5]benzo[1,2-c]phenanthridin-13(12H)-one] | 0.316 | 0.0515 | 0.166 | 0.154 | 0.0605 | 0.0451 | 0.184 | 0.0757 | 0.118 | 0.16 | 0.171 | 0.0909 | 0.104 | 0.0274 | 0.165 | 0.202 | 0.0948 | 0.0906 | 0.0644 | 0.0292 | GI50 (DU-145): 0.13 µM; GI50 (786-0): 0.0703 µM; GI50 (OVCAR-5): 0.183 µM; GI50 (SNB-75): 0.0885 µM; GI50 (NCI-60 cell lines): 0.0977 µM; GI50 (DU145; [1]): 0.002 µM; GI50 (DU145; read-out: GI50 ± SD (μM) Parental cell line DU-145, drug-resistance panel): 0.002 ± 0.001 µM; GI50 (A549): 0.97 µM; TOP1 inhibition (Top1): +++ (+++, between 75% and 95% activity)
COc1cc2c(=O)n(CCN)c3c4cc5c(cc4ccc3c2cc1OC)OCO5 [Compound 67, 12-(2-aminoethyl)-2,3-dimethoxy-[1,3]dioxolo[4′,5′:4,5]benzo[1,2-c]phenanthridin-13(12-H)-one] | 1.35 | 0.285 | 0.826 | 0.782 | 0.29 | 0.278 | 3.56 | 0.368 | 0.759 | 0.929 | 0.739 | 0.614 | 0.35 | 0.0875 | 1.01 | 0.918 | 0.584 | 0.451 | 0.295 | 0.164 | GI50 (DU-145): 0.527 µM; GI50 (786-0): 0.464 µM; GI50 (OVCAR-5): 1.2 µM; GI50 (SNB-75): 0.596 µM; GI50 (NCI-60 cell lines): 0.525 µM; GI50 (DU145; [1]): 0.014 ± 0.001 µM; GI50 (A549): 0.98 ± 0.014 µM; TOP1 inhibition (Top1): ++ (++, between 50% and 75% activity)
